Test results reported in US4086347A, “9-[3-(4-Phenoxymethylpiperidino)-propyl]-adenines” (Boehringer Mannheim GmbH, priority 1975, dated 1978).

System: blood pressure
Assay: Blood pressure reduction in awake rats with arterial high pressure (sodium chloride / 11-deoxycorticosteroneacetate)
Assay type: in vivo, rat
Settings: 25 mg/kg perorally, 4 hours after application, median
Protocol: In order to establish the effectiveness of the novel products of the invention as agents for reducing blood pressure, a series of tests as follows were carried out.
The following were the test methods used:
The test animals were rats into which arterial catheters had been implanted in a sterile operation via the arteria femoralis into the aorta. It was possible to measure the animals' blood pressure in the awake state directly in the blood with a transducer (Statham Transducer Type TP 23 D 6) via a carrier frequency measuring bridge. The animals were treated by administration of 10% common salt (sodium chloride) in their feed and, starting on the sixth week of their life, two injections per week of 5 mg at a time of 11-deoxycorticosteroneacetate per animal and thus developed an arterial high pressure in the median with values of […]. The test compounds were administered to the animals as follows: After the blood pressure control values had been determined, the animals received the test compound perorally suspended in 10 ml of 1% methyl cellulose solution in the indicated dosage and measurements were taken 4 hours after oral application of the substance.
The values set forth in the Table represent in each case the median of at least 7 individual measurements of blood pressure depression (in mm Hg) per applied substance.

`CCCCNc1ncnc2c1ncn2CCCN1CCC(COc2ccc(F)cc2)CC1` [Example 2, N^6-n-Butyl-9-{3-[4-(4-fluorophenoxymethyl)-piperidino]propyl}-adenine] and `CCCNc1ncnc2c1ncn2CCCN1CCC(COc2ccc(F)cc2)CC1` [Example 1p, N^6-n-propyl-9-{3-[4-(4-fluorophenoxy-methyl)-piperidino]-propyl}-adenine] are within error of each other in “Maximum Blood Pressure Reduction” value: -53 ± 6 mm Hg for the first, -57 ± 8 mm Hg for the second.

Going from `CCCNc1ncnc2c1ncn2CCCN1CCC(COc2ccccc2)CC1` [Example 1o, N^6-n-propyl-9-[3-(4-phenoxymethyl-piperidino)-propyl]-adenine] to `OCCNc1ncnc2c1ncn2CCCN1CCC(COc2ccccc2)CC1` [Example 1n, N^6-(2-hydroxyethyl)-9-[3-(4-phenoxy-methyl-piperidino)-propyl]-adenine], the “Maximum Blood Pressure Reduction” value rises from -67 ± 7 mm Hg to -48 ± 5 mm Hg.

Compared with `CCNc1ncnc2c1ncn2CCCN1CCC(COc2ccc(F)cc2)CC1` [Example 1m, N^6-ethyl-9-{3-[4-(4-fluorophenoxy-methyl)-piperidino]-propyl}-adenine], `CNc1ncnc2c1ncn2CCCN1CCC(COc2ccc(F)cc2)CC1` [Example 1k, N^6-methyl-9-{3-[4-(4-fluorophenoxy-methyl)-piperidino]-propyl}-adenine] is lower in “Maximum Blood Pressure Reduction” value: -20 ± 6 mm Hg for the first, -49 ± 8 mm Hg for the second.

First: Nc1ncnc2c1ncn2CCCN1CCC(COc2ccccc2Cl)CC1 [Example 1b, 9-{3-[4-(2-chlorophenoxymethyl)-piperidino]-propy}-adenine]
Second: Nc1ncnc2c1ncn2CCCN1CCC(COc2ccccc2Br)CC1 [Example 1a, 9-{3-[4-(2-bromophenoxymethyl)-piperidino]-propyl}-adenine]
The “Maximum Blood Pressure Reduction” value of the first is lower: -64 ± 5 mm Hg for the first, -47 ± 7 mm Hg for the second.

First: Nc1ncnc2c1ncn2CCCN1CCC(COc2ccccc2)CC1 [Example 1, 9-[3-(4-Phenoxymethylpiperidino)-propyl]-adenine]
Second: CN(C)c1ncnc2c1ncn2CCCN1CCC(COc2ccccc2)CC1 [Example 1q, 6-dimethylamino-9-[3-(4-phenoxymethyl-piperidino)-propyl]-purine]
The “Maximum Blood Pressure Reduction” value of the first is lower: -76 ± 5 mm Hg for the first, -41 ± 7 mm Hg for the second.

First: Nc1ncnc2c1ncn2CCCN1CCC(COc2ccc(F)cc2)CC1 [Example 1e, 9-{3-[4-(4-fluorophenoxymethyl)-piperidino]-propyl}-adenine]
Second: COc1ccc(OCC2CCN(CCCn3cnc4c(N)ncnc43)CC2)cc1 [Example 1h, 9-{3-[4-(4-methoxy-phenoxymethyl)-piperidino]-propyl}-adenine]
The “Maximum Blood Pressure Reduction” value of the first is lower: -60 ± 7 mm Hg for the first, -19 ± 3 mm Hg for the second.

First: Cc1ccccc1OCC1CCN(CCCn2cnc3c(N)ncnc32)CC1 [Example 1i, 9-{3-[4-(2-methyl-phenoxymethyl)-piperidino]-propyl}-adenine]
Second: COc1cccc(OCC2CCN(CCCn3cnc4c(N)ncnc43)CC2)c1 [Example 1g, 9-{3-[4-(3-methoxy-phenoxymethyl)-piperidino]-propyl}-adenine]
The “Maximum Blood Pressure Reduction” value of the first is lower: -55 ± 7 mm Hg for the first, -18 ± 4 mm Hg for the second.

With `CC(C)Nc1ncnc2c1ncn2CCCN1CCC(COc2ccccc2)CC1` [Example 2a, N^6-isopropyl-9-[3-(4-phenoxymethyl-piperidino)-propyl]-adenine] the “Maximum Blood Pressure Reduction” value was -35 ± 9 mm Hg.

Same assay, conditions: 50 mg/kg perorally, 4 hours after application, median

`CCCCNc1ncnc2c1ncn2CCCN1CCC(COc2ccccc2)CC1` [Example 2b, N^6-n-butyl-9-[3-(4-phenoxymethyl-piperidino)-propyl]-adenine] and `Nc1ncnc2c1ncn2CCCN1CCC(COc2ccc(Cl)cc2)CC1` [Example 1d, 9-{3-[4-(4-chlorophenoxymethyl)-piperidino]-propyl}-adenine] are within error of each other in “Maximum Blood Pressure Reduction” value: -35 ± 11 mm Hg for the first, -25 ± 7 mm Hg for the second.

Same assay, conditions: 150 mg/kg perorally, 4 hours after application, median

With `CC(N)(Cc1ccc(O)c(O)c1)C(=O)O` (stereo not drawn) [α-Methyl-Dopa, reference compound] the “Maximum Blood Pressure Reduction” value was -33 ± 5 mm Hg.

System: passive cutaneous anaphylactic reaction in rats produced by injection of serum containing reaginic antibodies to egg albumin
Assay: Inhibition of passive cutaneous anaphylactic (PCA) reaction in rats induced by reaginic antibodies
Assay type: in vivo, rat
Settings: 0.38 mg/kg, intravenously immediately before antigen
Protocol: Diethylcarbamazin, i.e., 1-diethylcarbamoyl-4-methylpiperazine was used as a comparison compound. Specifically, tests were run as follows:
Serum containing reaginic (IgE-like) antibody to egg albumin was prepared by injecting rats intramuscularly with 0.1 ml of a solution of the antigen (10 mg/ml) in saline together with 0.5 ml of Bordetella pertussis vaccine (Behring; 2 × 10^10 organisms/ml). 9-14 Days later the animals were bled from the abdominal aorta; the serum was pooled and stored at -20° C until required. The titer of the serum, i.e., the highest dilution inducing passive cutaneous anaphylaxis (PCA) in the rat following a 48-hour latent period, was between 1:8 and 1:32. For use in these experiments the serum was diluted 1:24.
The animals were anesthetized with 2,2-dichloro-1,1-difluoroethyl-methyl ether, sold under the trademark Penthrane, and were sensitized by injecting 0.1 ml of the antiserum into the shaved abdominal flanks. After 48 hours for reaginic PCA, the animals were given an intravenous injection of 1 ml of saline solution containing 0.5% by weight of egg albumin and 0.25% by weight of Evans Blue.
After having killed and exsanguinated the animals, the size in square millimeters and the intensity, in arbitary scores, of the resulting blue spot were determined. The product of these two parameters was used to determine the degree of the reaction and the degree of reaction with no active material was taken as the standard against which to measure % inhibition of the anaphylactic reaction.
6 Animals were used per dose level and for control.
The test material was injected intravenously immediately before the antigen, using a solution in water containing 0.5% HCl and 2% of dimethylformamide. For comparative purposes there was also tested diethylcarbamoyl-4-methylpiperazine sold under the tradename Diethylcarbamazin. The volumes of the injections were varied to give the indicated dosage of active material. The results obtained were as follows:
(Ovalbumin 2 × cryst. and Bord. pertussis 2 × 10^10) Active material applied intravenously immediately before antigen

Going from `Nc1ncnc2c1ncn2CCCN1CCC(COc2ccccc2Cl)CC1` [Example 1b, 9-{3-[4-(2-chlorophenoxymethyl)-piperidino]-propy}-adenine] to `Nc1ncnc2c1ncn2CCCN1CCC(COc2ccccc2)CC1` [Example 1, 9-[3-(4-Phenoxymethylpiperidino)-propyl]-adenine], the “% Inhibition PCA” value falls from 32% to 27%.

Going from `CNc1ncnc2c1ncn2CCCN1CCC(COc2ccc(F)cc2)CC1` [Example 1k, N^6-methyl-9-{3-[4-(4-fluorophenoxy-methyl)-piperidino]-propyl}-adenine] to `Nc1ncnc2c1ncn2CCCN1CCC(COc2ccc(F)cc2)CC1` [Example 1e, 9-{3-[4-(4-fluorophenoxymethyl)-piperidino]-propyl}-adenine], the “% Inhibition PCA” value rises from 21% to 54%.

In the case of `CNc1ncnc2c1ncn2CCCN1CCC(COc2ccccc2)CC1` [Example 1j, N^6-methyl-9-[3-(4-phenoxymethyl-piperidino)-propyl]-adenine], the “% Inhibition PCA” value is reported as 21%.

Same assay, conditions: 0.75 mg/kg, intravenously immediately before antigen

Compared with `Nc1ncnc2c1ncn2CCCN1CCC(COc2ccccc2)CC1` [Example 1, 9-[3-(4-Phenoxymethylpiperidino)-propyl]-adenine], `CNc1ncnc2c1ncn2CCCN1CCC(COc2ccccc2)CC1` [Example 1j, N^6-methyl-9-[3-(4-phenoxymethyl-piperidino)-propyl]-adenine] is higher in “% Inhibition PCA” value: 45% for the first, 60% for the second.

Same assay, conditions: 60.0 mg/kg, intravenously immediately before antigen

With `CCN(CC)C(=O)N1CCN(C)CC1` [Diethylcarbamazin, 1-diethylcarbamoyl-4-methylpiperazine, reference compound] the “% Inhibition PCA” value was 58%.
